In patent publication US9771330B2, “Pyrimidine compounds for the treatment of cancer” (The University of North Carolina at Chapel Hill, priority 2012, dated 2017) one finds IC50 data, which are given here for one compound.

The target of this assay is T1, Mer (Homo sapiens, UniProt Q12866).
T1 sequence (Q12866 21-999): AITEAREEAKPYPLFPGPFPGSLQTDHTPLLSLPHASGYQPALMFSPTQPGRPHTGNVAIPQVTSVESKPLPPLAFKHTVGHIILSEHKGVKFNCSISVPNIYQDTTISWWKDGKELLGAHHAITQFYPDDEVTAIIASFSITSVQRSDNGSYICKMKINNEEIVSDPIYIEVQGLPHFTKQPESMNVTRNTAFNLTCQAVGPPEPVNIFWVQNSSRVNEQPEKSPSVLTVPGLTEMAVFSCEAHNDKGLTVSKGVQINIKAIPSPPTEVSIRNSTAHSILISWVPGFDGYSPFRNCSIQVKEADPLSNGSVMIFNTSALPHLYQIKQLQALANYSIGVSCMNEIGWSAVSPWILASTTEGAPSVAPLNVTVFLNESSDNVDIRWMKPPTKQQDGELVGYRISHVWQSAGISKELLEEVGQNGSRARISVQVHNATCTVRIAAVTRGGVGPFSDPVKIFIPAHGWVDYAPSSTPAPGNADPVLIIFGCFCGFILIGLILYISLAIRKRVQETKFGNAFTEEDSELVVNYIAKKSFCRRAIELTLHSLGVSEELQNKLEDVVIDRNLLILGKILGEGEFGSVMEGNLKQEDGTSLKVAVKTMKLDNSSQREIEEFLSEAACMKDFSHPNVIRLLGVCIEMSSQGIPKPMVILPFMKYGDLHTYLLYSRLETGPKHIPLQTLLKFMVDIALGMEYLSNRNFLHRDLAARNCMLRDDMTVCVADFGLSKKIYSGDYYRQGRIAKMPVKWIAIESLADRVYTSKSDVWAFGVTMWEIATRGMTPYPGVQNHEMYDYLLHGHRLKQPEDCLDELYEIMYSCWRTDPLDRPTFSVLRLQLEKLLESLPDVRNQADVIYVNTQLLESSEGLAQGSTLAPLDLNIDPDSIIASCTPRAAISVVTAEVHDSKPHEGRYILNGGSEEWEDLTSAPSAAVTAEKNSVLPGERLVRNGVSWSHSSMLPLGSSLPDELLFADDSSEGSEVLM
The assay is described as follows: Mer IC50. In kind it is biochemical. The conditions noted are these: Table 2, compounds of General Procedure E.

Consider `N[C@H]1CCCCNc2nc(ncc2C(=O)NCC2CCOCC2)NCCCCCCNC1=O` [UNC2705A], for which the IC50 is less than 10 nM.
